{"source": "patent US8530622B2", "about": "“Proteasome-activating anti-aging peptides and compositions containing same” (ISP Investments Inc., priority 2009, dated 2013)", "key": {"20S proteasome": {"molecular_target": "T1, 20S proteasome (Homo sapiens, UniProt P28072+P28074+Q99436)", "T1 construct": "After incubation of the cellular lysate with the synthetic substrate specific for the activity studied; endogenous in cells; host or cells: experimentally aged normal human keratinocytes (NHK) from human skin biopsies; activity measured in the cell lysate", "test": "Enzymatic activity of 20S proteasome on aged keratinocytes maintained in culture (AMC-labeled substrates)", "type": "cell-based", "conditions": "15 days culture, 1% peptide", "protocol": "(§1) Normal Human Keratinocyte (NHK), cells are isolated from human skin biopsies. These cells are maintained in culture in a special keratinocyte-SFM medium (Invitrogen) at 37° C. under a humidified atmosphere of 5% CO2. Aged NHK cells are obtained by performing a series of repeated sub-cultures. Briefly the cells are seeded in 75 cm^2 flasks, at low density and cultured from 5 to 10 days between 2 passages. The cells are treated or not treated by the active principle, by adding the active principle directly into the culture medium 3 times per week. The cells are then maintained under these conditions for 45 days.\nExperimentally aged keratinocytes maintained in culture for 15 days are treated with 1% of peptide SEQ ID No. 1. The enzymatic activities of 20S proteasome are then studied. In fact, 20S proteasome is the subunit responsible for enzymatic hydrolysis. Three enzymatic activities may be studied: Trypsin-like, chymotrypsin-like and peptidylglutamyl-peptide hydrolase (PGPH) activity. We are proposing to study these activities by a specific enzymatic assay of each activity.\nThe aged keratinocytes are maintained in culture for 15 days. The cell treatment is carried out by adding a solution at 1% of peptide SEQ ID No. 1 directly into the medium, renewed 3 times per week for the time of the experiment.\nThe assay of each activity was carried out by utilizing specific substrates labeled by a fluorescent compound 7-amido-4-methylcoumarin (AMC). After cleavage, the AMC excitation wavelength is 350 nm, the fluorescence is read at 440 nm. The fluorescence intensity is proportional to the quantity of fluorochrome obtained and consequently, this quantity is proportional to the quantity of hydrolyzed substrate.\nThe synthetic peptide Boc-Leu-Arg-Arg-AMC is specific for trypsin activity. […]\nThe cells are detached from the support in an extraction buffer. […] After incubation of the cellular lysate with the synthetic substrate specific for the activity studied, fluorescence is read with the Synergy spectrophotometer (BIOTEK, Vermont, USA) at 440 nm."}, "[1]": {"system": "experimentally aged keratinocytes", "test": "Antiaging effect: beta-galactosidase (X-gal) labeling of experimentally aged keratinocytes in culture", "type": "cell-based, human", "conditions": "keratinocytes aged 20 days, 1% peptide 3 times per week", "protocol": "as §1\nA study of the antiaging effect of the active principle was carried out by evaluating the expression of the beta-galactosidase protein on experimentally aged keratinocytes in culture. In fact, beta-galactosidase activity is known to be present in senescent cells while galactosidase activity is not found in pre-senescent, quiescent or immortal cells.\nKeratinocytes experimentally aged in 8-well labteck are cultured and maintained for 20 days in the presence or not of 1% peptide of SEQ ID No. 1. The treatment is carried out 3 times per week by direct addition into the medium.\nUntreated cells are maintained in culture for the same experiment time and will be used as controls. […]"}, "volunteers": {"system": "volunteers", "test": "Clinical test: wrinkle and fine line measurement by QUANTIRIDE", "type": "in vivo, human", "parameters": "Depth of wrinkles, Measurement / Number of wrinkles, Measurement: unit not given here", "conditions": "D 23-D 0, 2 mg/cm^2 twice a day, 12 volunteers", "protocol": "12 volunteers aged from 29 to 56 years applied either a placebo or the peptidic active principle of sequence ID No. 1 twice a day, morning and night, at a dose of 2 mg/cm^2 for 24 days. A clinical evaluation of the results enabled several wrinkle and fine line parameters to be measured.\nThe wrinkle and fine line measurement was carried out by QUANTIRIDE, which is an evaluation method that enables the number, length and depth of wrinkles to be measured by making a replica of the skin before and after treatment by using a silicone polymer."}}, "note": "Ends that are not written are not given here."}
{"substance": "Asp-Cys-Arg-NH2 [SEQ ID No. 1]", "values": [{"measurement": "trypsin-like activity of 20S proteasome, increase", "setting": "20S proteasome; substrate Boc-Leu-Arg-Arg-AMC", "result": 155.3, "unit": "%"}, {"measurement": "chymotrypsin-like activity of 20S proteasome, increase", "setting": "20S proteasome; substrate Suc-Leu-Leu-Val-Try-AMC", "result": 130, "unit": "%"}, {"measurement": "peptidylglutamyl-peptide hydrolase activity of 20S proteasome, increase", "setting": "20S proteasome; substrate Z-Leu-Leu-Glu-AMC", "result": 144.6, "unit": "%"}, {"measurement": "beta-galactosidase activity in treated cells compared to untreated cells", "setting": "[1]", "result": "strongly reduced"}, {"measurement": "Depth of wrinkles, Measurement", "setting": "volunteers", "result": "−6.5557"}, {"measurement": "Length of wrinkles, Measurement", "setting": "volunteers", "result": "−0.104", "unit": "mm"}, {"measurement": "Number of wrinkles, Measurement", "setting": "volunteers", "result": "−9.5833"}, {"measurement": "Depth of wrinkles, % of volunteers with improvement", "setting": "volunteers; listed as Active peptide", "result": 75, "unit": "%"}, {"measurement": "Length of wrinkles, % of volunteers with improvement", "setting": "volunteers; listed as Active peptide", "result": 83.3, "unit": "%"}, {"measurement": "Number of wrinkles, % of volunteers with improvement", "setting": "volunteers; listed as Active peptide", "result": 75, "unit": "%"}, {"measurement": "Depth of wrinkles, % of volunteers with improvement", "setting": "volunteers; listed as active principle", "result": 75, "unit": "%"}, {"measurement": "Length of wrinkles, % of volunteers with improvement", "setting": "volunteers; listed as active principle", "result": 83.3, "unit": "%"}, {"measurement": "Number of wrinkles, % of volunteers with improvement", "setting": "volunteers; listed as active principle", "result": 75, "unit": "%"}]}
